Key:
[1] = system: Age-Impaired (AI) Long-Evans rats; experiment: Morris Water Maze retention trial, levetiracetam in aged-impaired rats; type: in vivo, rat
Experimental: The MWM apparatus consists of a large, circular pool (diameter 1.83 m; height, 0.58 m) filled with water (27° C.) that is made opaque through the addition of non-toxic pigment or some other substance. In the typical “hidden platform” version of the test, rats are trained to find a camouflaged white escape platform (height, 34.5 cm) that is positioned in the center of one quadrant of the maze about 1.0 cm below the water surface. This platform can be retracted to the bottom of the tank or raised to its normal position from outside the maze during behavioral testing. The location of the platform remains constant from trial to trial. Because there are no local cues that mark the position of the platform, the rat's ability to locate it efficiently from any starting position at the perimeter of the pool depends on using information surrounding the maze. The maze is surrounded by black curtains to which white patterns are affixed to provide a configuration of spatial cues. A second platform (height 37.5 cm), with its surface painted black is elevated 2 cm above the water surface during cue training to control for factors unrelated to cognition. The behavior of a rat in the pool is recorded by a camera that is suspended 2.5 m above the center of the pool. The camera is connected to a video tracking system (HVS Image Advanced Tracker VP200) and a PC computer running HVS software developed by Richard Baker of HVS Image, Hampton, UK. The MWM protocol is optimized for sensitivity to the effects of aging on cognition and for measures of reliable individual differences within the aged population of out-bred Long-Evans rats (Gallagher et al. Behav. Neurosci. 107:618-626, (1993)). Rats receive three trials per day for 8 consecutive days, using a 60 sec inter-trial interval. On each training trial, the rat is released into the maze from one of four equally spaced starting positions around the perimeter of the pool. […] At the completion of the protocol using the hidden platform, rats are assessed for cue learning using the visible platform. […]

aMCI subjects = experiment: explicit 3-alternative forced choice task; type: in vivo, human
Text: See Folstein et al., J Psychiatric Res 12: 189-98, (1975); Robbins et al., Dementia 5: 266-81, (1994); Rey, L′examen clinique en psychologie, (1964); Kluger et al., J Geriatr Psychiatry Neurol 12:168-79, (1999); Marquis et al., 2002 and Masur et al., 1994. Also see Buchanan, R. W., Keefe, R. S. E., Umbricht, D., Green, M. F., Laughren, T., and Marder, S. R. (2011) The FDA-NIMH-MATRICS guidelines for clinical trial design of cognitive-enhancing drugs: what do we know 5 years later? Schizophr. Bull. 37, 1209-1217. Another example of a cognitive test in humans is the explicit 3-alternative forced choice task. In this test, subjects are presented with color photographs of common objects consisting of a mix of three types of image pairs: similar pairs, identical pairs and unrelated foils. The second of the pair of similar objects is referred to as the “lure”. These image pairs are fully randomized and presented individually as a series of images. Subjects are instructed to make a judgment as to whether the objects seen are new, old or similar. A “similar” response to the presentation of a lure stimulus indicates successful memory retrieval by the subject.
The activity of the subject's medial temporal lobe is measured by functional MRI during the subject's participation in an explicit 3-alternative forced choice task, where participants view novel, repeated and similar (“lure”) stimuli. The Psychophysics Toolbox extensions in Matlab 7.0 (The MathWorks, Natick, Mass.) is used for stimulus presentation and behavioral data collection. Stimuli are color photographs of common objects. Each participant undergoes a series of testing runs during the functional imaging sessions, each run consisting of a mix of three types of image pairs: similar pairs, identical pairs and unrelated foils. These image pairs are fully randomized throughout the run and presented individually as a series of images (see FIG. 10A). Participants are instructed to make a judgment as to whether each object seen is new, old or similar. […]

Structure (SMILES): CC[C@@H](C(N)=O)N1CCCC1=O [levetiracetam, (2S)-2-(2-oxopyrrolidin-1-yl)butanamide]
- time spent in the target quadrant (performance vs vehicle) ([1]; levetiracetam 5 mg/kg/day i.p., retention trial 24 hours after two training days): did not significantly improve
- time spent in the target annulus ([1]; levetiracetam 10 mg/kg/day i.p., retention trial): effectiveness of the 10 mg/kg/day levetiracetam treatment was also seen
- time spent in the target quadrant, percentage of total swimming time ([1]; levetiracetam 10 mg/kg/day i.p., retention trial 24 hours after two training days): approximately 35%
- performance in the explicit 3-alternative forced choice task (aMCI subjects; levetiracetam 62.5 mg BID for two weeks): improves significantly
- performance in the explicit 3-alternative forced choice task (aMCI subjects; levetiracetam 125 mg twice a day for two weeks vs placebo): improves significantly
- performance in the explicit 3-alternative forced choice task (aMCI subjects; levetiracetam 250 mg BID for two weeks): does not significantly improve
